Reference: ChEMBL document CHEMBL2176970, “Discovery and optimization of a series of 3-(3-phenyl-3H-imidazo[4,5-b]pyridin-2-yl)pyridin-2-amines: orally bioavailable, selective, and potent ATP-independent Akt inhibitors” (J Med Chem, 2012)
The source made the active and inactive calls. The rule behind the calls is not given here.

Assays:
[1] = target: T1, RAC-alpha serine/threonine-protein kinase (Homo sapiens, UniProt P31749); conditions: Sf9
[2] = target: T1, RAC-alpha serine/threonine-protein kinase; assay: Inhibition of Akt1 (1 to 480) expressed in Sf9 cells using biotin-GRPRTSSFAEG as substrate after 20 mins by Alpha-screen assay
[3] = target: T2, RAC-gamma serine/threonine-protein kinase (Homo sapiens, UniProt Q9Y243); assay: Binding affinity to Akt3 (1 to 479) expressed in Sf9 cells assessed as change in melting temperature at 15 uM
T2 sequence (Q9Y243 whole entry): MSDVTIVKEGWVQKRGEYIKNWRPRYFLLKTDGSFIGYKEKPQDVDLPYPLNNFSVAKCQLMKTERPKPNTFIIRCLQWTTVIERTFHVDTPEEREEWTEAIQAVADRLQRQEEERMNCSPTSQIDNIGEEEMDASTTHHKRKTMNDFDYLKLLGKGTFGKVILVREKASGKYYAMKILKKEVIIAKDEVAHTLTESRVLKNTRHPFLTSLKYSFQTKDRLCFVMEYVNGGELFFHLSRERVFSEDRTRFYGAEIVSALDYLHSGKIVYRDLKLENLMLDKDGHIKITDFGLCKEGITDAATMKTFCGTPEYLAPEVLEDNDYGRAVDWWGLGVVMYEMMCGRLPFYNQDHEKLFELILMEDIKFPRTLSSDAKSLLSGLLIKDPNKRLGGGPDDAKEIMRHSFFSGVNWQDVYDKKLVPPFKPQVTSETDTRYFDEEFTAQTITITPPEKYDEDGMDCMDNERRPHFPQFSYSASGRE

A2780 = assay: Antiproliferative activity against human A2780 cells after 72 hrs by MTS assay; assay type: functional, cell-based; conditions: A2780, 72 h
[4] = target: T1, RAC-alpha serine/threonine-protein kinase; assay: Inhibition of Akt1 in human A2780 cells assessed as phosphorylation of Akt at S473 after 2 hrs by Western Blot analysis; assay type: cell-based
[5] = target: T1, RAC-alpha serine/threonine-protein kinase; assay: Inhibition of Akt1 in human AN3CA cells assessed as phosphorylation of Akt at S473 after 2 hrs by Western Blot analysis; assay type: cell-based, AN3-CA
[6] = target: T1, RAC-alpha serine/threonine-protein kinase; assay: Inhibition of Akt1 in human AN3CA cells assessed as phosphorylation PRAS40 at T246 after 2 hrs by Western Blot analysis; assay type: cell-based, AN3-CA
[7] = target: T3, RAC-beta serine/threonine-protein kinase (Homo sapiens, UniProt P31751); assay: Binding affinity to Akt2 (1 to 481) expressed in Sf9 cells assessed as change in melting temperature at 15 uM
T3 sequence (P31751 whole entry): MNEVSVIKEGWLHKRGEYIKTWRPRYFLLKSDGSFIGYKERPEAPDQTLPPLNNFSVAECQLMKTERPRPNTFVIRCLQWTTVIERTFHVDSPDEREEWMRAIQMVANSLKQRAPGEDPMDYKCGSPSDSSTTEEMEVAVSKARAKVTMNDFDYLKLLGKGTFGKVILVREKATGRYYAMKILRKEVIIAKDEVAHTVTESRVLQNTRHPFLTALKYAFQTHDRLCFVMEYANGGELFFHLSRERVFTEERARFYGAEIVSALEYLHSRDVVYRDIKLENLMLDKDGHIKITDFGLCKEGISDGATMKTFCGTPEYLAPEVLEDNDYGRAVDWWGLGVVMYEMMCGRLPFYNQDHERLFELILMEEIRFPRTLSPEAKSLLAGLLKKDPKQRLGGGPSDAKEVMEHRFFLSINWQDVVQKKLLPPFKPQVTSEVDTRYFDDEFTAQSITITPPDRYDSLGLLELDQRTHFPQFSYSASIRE

AN3-CA = assay: Antiproliferative activity against human AN3CA cells after 72 hrs by MTS assay; assay type: functional, cell-based
[8] = target: T1, RAC-alpha serine/threonine-protein kinase; assay: Inhibition of Akt 1 in human A2780 cells assessed as phosphorylation of Akt at T308 after 2 hrs by Western Blot analysis; assay type: cell-based
[9] = target: T3, RAC-beta serine/threonine-protein kinase; assay: Inhibition of Akt2 (1 to 481) expressed in Sf9 cells using biotin-GRPRTSSFAEG as substrate after 20 mins by Alpha-screen assay
[10] = target: T1, RAC-alpha serine/threonine-protein kinase; assay: Inhibition of Akt1 in human A2780 cells assessed as phosphorylation PRAS40 at T246 after 2 hrs by Western Blot analysis; assay type: cell-based
[11] = target: T1, RAC-alpha serine/threonine-protein kinase; assay: Inhibition of Akt 1 in human AN3CA cells assessed as phosphorylation of Akt at T308 after 2 hrs by Western Blot analysis; assay type: cell-based, AN3-CA
[12] = target: T2, RAC-gamma serine/threonine-protein kinase; assay: Inhibition of Akt3 (1 to 479) expressed in Sf9 cells using biotin-GRPRTSSFAEG as substrate after 20 mins by Alpha-screen assay
[13] = target: T1, RAC-alpha serine/threonine-protein kinase; conditions: Sf9; remark: listed apart in the source
Description: Binding affinity to Akt1 (1 to 480) expressed in Sf9 cells assessed as fluorescence quenching by Trp fluorescence assay

[14] = target: T1, RAC-alpha serine/threonine-protein kinase; conditions: Sf9; remark: listed apart in the source
Description: Binding affinity to Akt1 (144 to 480) expressed in Sf9 cells assessed as fluorescence quenching by Trp fluorescence assay

[15] = target: T1, RAC-alpha serine/threonine-protein kinase; conditions: Sf9; remark: listed apart in the source
Description: Binding affinity to Akt1 (1 to 480) expressed in Sf9 cells assessed as change in melting temperature at 15 uM

[16] = target: T1, RAC-alpha serine/threonine-protein kinase; conditions: Sf9; remark: listed apart in the source
Description: Binding affinity to Akt1 (144 to 480) expressed in Sf9 cells assessed as change in melting temperature at 15 uM

[17] = target: T1, RAC-alpha serine/threonine-protein kinase; assay: Inhibition of Akt1 (1 to 480) expressed in Sf9 cells by indirect affinity mass spectrometry assay

T1 sequence (P31749 whole entry): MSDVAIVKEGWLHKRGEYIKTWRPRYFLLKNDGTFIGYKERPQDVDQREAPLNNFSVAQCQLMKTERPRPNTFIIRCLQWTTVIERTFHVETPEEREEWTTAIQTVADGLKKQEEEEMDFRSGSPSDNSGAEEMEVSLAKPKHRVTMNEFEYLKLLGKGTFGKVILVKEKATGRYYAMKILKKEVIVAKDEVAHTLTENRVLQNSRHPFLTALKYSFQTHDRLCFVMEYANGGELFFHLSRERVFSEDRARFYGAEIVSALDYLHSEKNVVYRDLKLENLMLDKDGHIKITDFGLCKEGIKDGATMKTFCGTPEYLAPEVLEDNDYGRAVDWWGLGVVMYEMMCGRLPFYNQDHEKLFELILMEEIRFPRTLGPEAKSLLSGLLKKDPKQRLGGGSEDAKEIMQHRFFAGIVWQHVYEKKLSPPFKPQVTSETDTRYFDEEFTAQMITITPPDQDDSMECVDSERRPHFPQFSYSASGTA

SMILES | ΔTm [1] | IC50 [2] | IC50 (A2780) | IC50 [4] | IC50 [5] | IC50 [6] | ΔTm [7] | IC50 (AN3-CA) | IC50 [8] | IC50 [9] | IC50 [10] | IC50 [11] | IC50 [12] | further results
CC(C)(C)c1ccc(-n2c(-c3cccnc3N)nc3cc(Br)cnc32)cc1 | 0.9 °C | > 300000 nM | – | – | – | – | – | – | – | – | – | – | – | –
Nc1ncccc1-c1nc2ccc(-c3ccccc3)nc2n1-c1ccc(CNC(=O)c2ccccc2)cc1 | 11 °C | 24 nM | 9500 nM | 68 nM | > 10000 nM | > 10000 nM | 6.4 °C | 5500 nM | 180 nM | 35 nM | 410 nM | > 10000 nM | 390 nM | ΔTm [3]: 1.8 °C
CC(=O)Nc1cccc(-c2ccc3nc(-c4cccnc4N)n(-c4ccc(CC(=O)Nc5cccc(F)c5)cc4)c3n2)c1 | 11.1 °C | 17 nM | 3300 nM | 120 nM | 90 nM | 1500 nM | 6.7 °C | 1700 nM | 15 nM | 24 nM | 140 nM | 260 nM | 2500 nM | ΔTm [3]: 1.5 °C
COc1ccccc1Cn1c(-c2cccnc2N)nc2cc(Br)cnc21 | – | > 300000 nM | – | – | – | – | – | – | – | – | – | – | – | deltaTm [1]: inactive
CC(=O)Nc1ccc(-n2c(-c3cccnc3N)nc3cccnc32)cc1 | 3.7 °C | 1300 nM | – | – | – | – | – | – | – | – | – | – | – | –
NCc1ccc(-n2c(-c3cccnc3)nc3cccnc32)cc1 | – | 8800 nM | – | – | – | – | – | – | – | – | – | – | – | deltaTm [1]: inactive
CC(C)(C)c1ccc(-n2c(-c3ccncc3)nc3cccnc32)cc1 | – | > 300000 nM | – | – | – | – | – | – | – | – | – | – | – | deltaTm [1]: inactive
Nc1ccc(-n2c(-c3cccnc3N)nc3cccnc32)cc1 | 4.1 °C | 740 nM | – | – | – | – | – | – | – | – | – | – | – | –
Nc1ncccc1-c1nc2cc(-c3cccnc3)cnc2n1-c1ccc(CNC(=O)c2cccc(F)c2)cc1 | 9.4 °C | 5.2 nM | 19000 nM | 54 nM | 46 nM | 820 nM | 5.4 °C | 13000 nM | 200 nM | 27 nM | 580 nM | 49 nM | – | ΔTm [3]: 1.5 °C
Cc1n[nH]c2ccc(-c3cncc(OC[C@@H](N)Cc4ccccc4)c3)cc12 | – | – | – | – | – | – | – | – | – | – | – | – | – | deltaTm [13]: inactive; ΔTm [14]: 2.12 °C; deltaTm [15]: inactive; ΔTm [16]: 1.3 °C
Nc1ncccc1-c1nc2cccnc2n1-c1ccc(NC(=O)c2ccccc2)cc1 | 7.3 °C | 14 nM | – | – | – | – | – | – | – | – | – | – | – | –
Nc1ncccc1-c1nc2ccc(-c3cccnc3)nc2n1-c1ccc(CC(=O)Nc2ccccc2)cc1 | 10.8 °C | 50 nM | 9400 nM | 65 nM | 69 nM | 2500 nM | 5.1 °C | 8800 nM | 55 nM | 25 nM | 480 nM | 51 nM | 390 nM | ΔTm [3]: 1.8 °C
Nc1ncccc1-c1nc2cc(C3CCCC3)cnc2n1-c1ccc(CNC(=O)c2ccccc2)cc1 | 6 °C | 110 nM | 65000 nM | – | 3700 nM | > 10000 nM | 3.3 °C | 33000 nM | 210 nM | 800 nM | 2100 nM | 9400 nM | > 100000 nM | deltaTm [3]: inactive; IC50 [17]: 12000 nM
CC(=O)Nc1cccc(-c2ccc3nc(-c4cccnc4N)n(-c4ccc(CNC(=O)c5ccccc5)cc4)c3n2)c1 | 12.8 °C | 15 nM | 1600 nM | 130 nM | 110 nM | 840 nM | 6.7 °C | 1500 nM | 140 nM | 47 nM | 910 nM | 170 nM | 170 nM | ΔTm [3]: 2.5 °C
Nc1ncccc1-c1nc2cccnc2n1-c1ccc(CNC(=O)Cc2ccccc2)cc1 | 4.7 °C | – | – | – | – | – | – | – | – | – | – | – | – | –
CC(C)(C)c1cccc(-n2c(-c3cccnc3N)nc3cccnc32)c1 | – | > 300000 nM | – | – | – | – | – | – | – | – | – | – | – | deltaTm [1]: inactive
COc1ccccc1Cn1c(-c2ccncc2)nc2cc(Br)cnc21 | – | > 300000 nM | – | – | – | – | – | – | – | – | – | – | – | deltaTm [1]: inactive; IC50 [17]: 5900 nM
Nc1ncccc1-c1nc2cc(Br)cnc2n1-c1ccc(CNC(=O)c2ccccc2)cc1 | 8.1 °C | 27 nM | 65000 nM | < 12 nM | 2500 nM | > 10000 nM | 3 °C | 60000 nM | 170 nM | 130 nM | 3100 nM | > 10000 nM | > 10000 nM | ΔTm [3]: 1 °C
CC(C)(C)c1ccc(-n2c(-c3cccnc3)nc3cccnc32)cc1 | – | 185000 nM | – | – | – | – | – | – | – | – | – | – | – | deltaTm [1]: inactive
COc1ccccc1Cn1c(-c2cccnc2N)nc2cccnc21 | – | 58000 nM | – | – | – | – | – | – | – | – | – | – | – | deltaTm [1]: inactive
Nc1ncccc1-c1nc2ccc(-c3cccnc3)nc2n1-c1ccc(CNC(=O)c2ccccc2)cc1 | 9.7 °C | – | 23000 nM | 34 nM | 1400 nM | 3200 nM | 4 °C | 13000 nM | 67 nM | 32 nM | 740 nM | 4200 nM | 370 nM | ΔTm [3]: 1 °C
Nc1ncccc1-c1nc2cc(-c3ccccc3)cnc2n1-c1ccc(CNC(=O)c2ccccc2)cc1 | 5.61 °C | 33 nM | > 100000 nM | 330 nM | 160 nM | 980 nM | 1.2 °C | > 100000 nM | 680 nM | 51000 nM | 1800 nM | 1100 nM | > 100000 nM | deltaTm [3]: inactive
Nc1ncccc1-c1nc2cccnc2n1-c1ccc(CNCc2ccccc2)cc1 | 4.9 °C | 260 nM | – | – | – | – | – | – | – | – | – | – | – | –
Nc1ncccc1-c1nc2cccnc2n1-c1cccc(CNC(=O)c2ccccc2)c1 | – | 13000 nM | – | – | – | – | – | – | – | – | – | – | – | deltaTm [1]: inactive
Nc1ncccc1-c1nc2ccc(-c3cccnc3)nc2n1-c1ccc(CNC(=O)c2cccc(F)c2)cc1 | 11.1 °C | 47 nM | 10000 nM | 190 nM | 95 nM | 2100 nM | 5.7 °C | 10000 nM | 690 nM | 80 nM | 1300 nM | 340 nM | 660 nM | ΔTm [3]: 1.6 °C
CC(C)(C)c1ccc(-n2c(-c3cccnc3N)nc3cccnc32)cc1 | 1.9 °C | – | – | – | – | – | – | – | – | – | – | – | – | –
CC(=O)NCc1ccc(-n2c(-c3cccnc3N)nc3cccnc32)cc1 | 2.3 °C | 810 nM | – | – | – | – | – | – | – | – | – | – | – | –
